One assay relates to RS4; 11 cells. Nature of the assay: Cell proliferation assay (MTS), RS4; 11 cells. Format: cell-based. To be noted: RS4, 11 (ATCC CRL-1873) cell proliferation, 30000 cells/well, 72 h, MTS, mechanism-based readout of Bcl-2 inhibition, read-out: RS4, 11 IC50. From the text:
(§1) MTS testing kit was purchased from Promega. The RPMI-1640, Fetal bovine serum and Penicillin-Streptomycin were purchased from Gibco. Dimethyl sulfoxide (DMSO) was purchased from Sigma.
(§2) To investigate whether a compound is able to inhibit the activity of Bcl-2 in cells, a mechanism-based assay using DOHH2 (DSMZ No.® ACC 47) and RS4; 11 (ATCC® CRL-1873™) cell was developed. In this assay, inhibition of Bcl-2 was detected by the inhibition of DOHH2 and RS4; 11 cells proliferation. DOHH2 and RS4; 11 cells were cultured in culture flasks to 40-80% confluence in RPMI-1640 plus 10% fetal bovine serum. Cells were collected and plated onto 96-well plates at desired cell density (DOHH2: 5000 cells/well; RS4; 11: 30000 cells/well). Plates were incubated overnight at 37° C., with 5% CO2 to adhere. Compounds were added to the plates, and the final compound concentrations were 10000, 3333, 1111, […], 124, 41, 14, 4.6 and 1.5 nM. Plates plated with DOHH2 or RS4; 11 cells were placed at 37° C., with 5% CO2 for 120 h (DOHH2) or 72 h (RS4; 11) respectively. 20 μl MTS/100 μl medium mixture solution were added to each well and incubate the plates for exactly 2 hours. The reaction was stopped by adding 25 μl 10% SDS per well. Measure absorbance at 490 nm and 650 nm (reference wavelength). ICso was calculated using GraphPad Prism 5.0.

The test system of a further assay is DOHH2 cells. Nature of the assay: Cell proliferation assay (MTS), DOHH2 cells. Format: cell-based. To be noted: DOHH2 (DSMZ ACC 47) cell proliferation, 5000 cells/well, 120 h, MTS, mechanism-based readout of Bcl-2 inhibition, read-out: DOHH2 IC50.
From the text: as §1, §2

Drawing on patent publication US11053239B2, “Compounds as BLC-2-selective apoptosis-inducing agents” (Fochon Pharmaceuticals, Ltd., priority 2017, dated 2021), this text covers IC50 for 13 molecules.

pIC50: −log10 of the molar value. Like-named read-outs stand apart in the source and are kept apart here.

In the case of `CN=S1(=O)CCN(C[C@H](C)Nc2ccc(S(=O)(=O)NC(=O)c3ccc(N4CCN(CC5=C(c6ccc(Cl)cc6)CC(C)(C)CC5)CC4)cc3Oc3cnc4[nH]ccc4c3)cc2[N+](=O)[O-])CC1` [Example 7, (S)-2-((1H-pyrrolo[2,3-b]pyridin-5-yl)oxy)-4-(4-((4′-chloro-5,5-dimethyl-3,4,5,6-tetrahydro-[1,1′-biphenyl]-2-yl)methyl)piperazin-1-yl)-N-((4-((1-(1-(methylimino)-1-oxido-1λ^6-thiomorpholino)propan-2-yl)amino)-3-nitrophenyl)sulfonyl)benzamide], the pIC50 with RS4; 11 cells (Homo sapiens, RS4-11, 72 h) was 7.26; in the assay with DOHH2 cells (Homo sapiens, DOHH-2, 120 h) it was 6.95.

For `COC(=O)N=S1(=O)CCN(CC[C@H](C)Nc2ccc(S(=O)(=O)NC(=O)c3ccc(N4CCN(CC5=C(c6ccc(Cl)cc6)CC(C)(C)CC5)CC4)cc3Oc3cnc4[nH]ccc4c3)cc2S(=O)(=O)C(F)(F)F)CC1` [Example 92, methyl (S)-(4-(3-((4-(N-(2-((1H-pyrrolo[2,3-b]pyridin-5-yl)oxy)-4-(4-((4′-chloro-5,5-dimethyl-3,4,5,6-tetrahydro-[1,1′-biphenyl]-2-yl)methyl)piperazin-1-yl)benzoyl)sulfamoyl)-2-((trifluoromethyl)sulfonyl)phenyl)amino)butyl)-1-oxido-1λ^6-thiomorpholin-1-ylidene) carbamate], the pIC50 is 6.96 with RS4; 11 cells (Homo sapiens, RS4-11, 72 h) and 7.28 with DOHH2 cells (Homo sapiens, DOHH-2, 120 h).

As to `CC1(C)CCC(CN2CCN(c3ccc(C(=O)NS(=O)(=O)c4ccc(NCC5CCC(N=S6(=O)CCCC6)CC5)c([N+](=O)[O-])c4)c(Oc4cnc5[nH]ccc5c4)c3)CC2)=C(c2ccc(Cl)cc2)C1` (centres unmarked) [Example 53, 2-((1H-pyrrolo[2,3-b]pyridin-5-yl)oxy)-4-(4-((4′-chloro-5,5-dimethyl-3,4,5,6-tetrahydro-[1,1′-biphenyl]-2-yl)methyl)piperazin-1-yl)-N-((3-nitro-4-(((4-((1-oxidotetrahydro-1λ^6-thiophen-1-ylidene)amino)cyclohexyl)methyl)amino)phenyl)sulfonyl)benzamide], the pIC50 is 8.15 with RS4; 11 cells (Homo sapiens, RS4-11, 72 h) and 7.96 in the assay with DOHH2 cells (Homo sapiens, DOHH-2, 120 h).

With `C[C@@H](CCN1CCS(=O)(=NC(=O)C2CC2)CC1)Nc1ccc(S(=O)(=O)NC(=O)c2ccc(N3CCN(CC4=C(c5ccc(Cl)cc5)CC(C)(C)CC4)CC3)cc2Oc2cnc3[nH]ccc3c2)cc1S(=O)(=O)C(F)(F)F` [Example 91, (S)-2-((1H-pyrrolo[2,3-b]pyridin-5-yl)oxy)-4-(4-((4′-chloro-5,5-dimethyl-3,4,5,6-tetrahydro-[1,1′-biphenyl]-2-yl)methyl)piperazin-1-yl)-N-((4-((4-(1-((cyclopropanecarbonyl)imino)-1-oxido-1λ^6-thiomorpholino)butan-2-yl)amino)-3-((trifluoromethyl)sulfonyl)phenyl)sulfonyl)benzamide], the pIC50 in the assay on RS4; 11 cells (Homo sapiens, RS4-11, 72 h) is 6.92; with DOHH2 cells (Homo sapiens, DOHH-2, 120 h) it was 6.59.

As for `CC(=O)N=S1(=O)CCN(CC[C@H](C)Nc2ccc(S(=O)(=O)NC(=O)c3ccc(N4CCN(CC5=C(c6ccc(Cl)cc6)CC(C)(C)CC5)CC4)cc3Oc3cnc4[nH]ccc4c3)cc2[N+](=O)[O-])CC1` [Example 80], the pIC50 in the assay on RS4; 11 cells (Homo sapiens, RS4-11, 72 h) is 7.33; with DOHH2 cells (Homo sapiens, DOHH-2, 120 h), 7.02.

On to `CC1(C)CCC(CN2CCN(c3ccc(C(=O)NS(=O)(=O)c4ccc(NCC5CCC(N=S6(=O)CCOCC6)CC5)c(S(=O)(=O)C(F)(F)F)c4)c(Oc4cnc5[nH]ccc5c4)c3)CC2)=C(c2ccc(Cl)cc2)C1` (centres unmarked) [Example 55, 2-((1H-pyrrolo[2,3-b]pyridin-5-yl)oxy)-4-(4-((4′-chloro-5,5-dimethyl-3,4,5,6-tetrahydro-[1,1′-biphenyl]-2-yl)methyl)piperazin-1-yl)-N-((4-(((4-((4-oxido-1,4λ^6-oxathian-4-ylidene)amino)cyclohexyl)methyl)amino)-3-((trifluoromethyl)sulfonyl)phenyl)sulfonyl) benzamide], for which the pIC50 in the assay on RS4; 11 cells (Homo sapiens, RS4-11, 72 h) is 6.64; with DOHH2 cells (Homo sapiens, DOHH-2, 120 h), 6.46.

Take `C[C@@H](CCN1CCS(=O)(=NC(=O)C2CC2)CC1)Nc1ccc(S(=O)(=O)NC(=O)c2ccc(N3CCN(CC4=C(c5ccc(Cl)cc5)CC(C)(C)CC4)CC3)cc2Oc2cnc3[nH]ccc3c2)cc1[N+](=O)[O-]` [Example 83, (S)-2-((1H-pyrrolo[2,3-b]pyridin-5-yl)oxy)-4-(4-((4′-chloro-5,5-dimethyl-3,4,5,6-tetrahydro-[1,1′-biphenyl]-2-yl)methyl)piperazin-1-yl)-N-((4-((4-(1-((cyclopropanecarbonyl)imino)-1-oxido-1λ^6-thiomorpholino)butan-2-yl)amino)-3-nitrophenyl)sulfonyl)benzamide]: the pIC50 was 7.74 with RS4; 11 cells (Homo sapiens, RS4-11, 72 h) and 7.33 with DOHH2 cells (Homo sapiens, DOHH-2, 120 h).

For `CCOC(=O)N=S1(=O)CCN(C[C@H](C)Nc2ccc(S(=O)(=O)NC(=O)c3ccc(N4CCN(CC5=C(c6ccc(Cl)cc6)CC(C)(C)CC5)CC4)cc3Oc3cnc4[nH]ccc4c3)cc2S(=O)(=O)C(F)(F)F)CC1` [Example 76, ethyl (S)-(4-(2-((4-(N-(2-((1H-pyrrolo[2,3-b]pyridin-5-yl)oxy)-4-(4-((4′-chloro-5,5-dimethyl-3,4,5,6-tetrahydro-[1,1′-biphenyl]-2-yl)methyl)piperazin-1-yl)benzoyl)sulfamoyl)-2-((trifluoromethyl)sulfonyl)phenyl)amino)propyl)-1-oxido-1λ^6-thiomorpholin-1-ylidene) carbamate], the pIC50 in the assay on RS4; 11 cells (Homo sapiens, RS4-11, 72 h) is 6.68; with DOHH2 cells (Homo sapiens, DOHH-2, 120 h), 6.61.

For the molecule `CC1(C)CCC(CN2CCN(c3ccc(C(=O)NS(=O)(=O)c4ccc(NCC5CCC(N=S6(=O)CCOCC6)CC5)c([N+](=O)[O-])c4)c(Oc4cnc5[nH]ccc5c4)c3)CC2)=C(c2ccc(Cl)cc2)C1` (centres unmarked) [Example 54, 2-((1H-pyrrolo[2,3-b]pyridin-5-yl)oxy)-4-(4-((4′-chloro-5,5-dimethyl-3,4,5,6-tetrahydro-[1,1′-biphenyl]-2-yl)methyl)piperazin-1-yl)-N-((3-nitro-4-(((4-((4-oxido-1,4λ^6-oxathian-4-ylidene)amino)cyclohexyl)methyl)amino)phenyl)sulfonyl) benzamide], the pIC50 in the assay with RS4; 11 cells (Homo sapiens, RS4-11, 72 h) was 8.40; in the assay on DOHH2 cells (Homo sapiens, DOHH-2, 120 h), 8.05.

Take `CCOC(=O)N=S1(=O)CCN(C[C@H](C)Nc2ccc(S(=O)(=O)NC(=O)c3ccc(N4CCN(CC5=C(c6ccc(Cl)cc6)CC(C)(C)CC5)CC4)cc3Oc3cnc4[nH]ccc4c3)cc2[N+](=O)[O-])CC1` [Example 72, ethyl (S)-(4-(2-((4-(N-(2-((1H-pyrrolo[2,3-b]pyridin-5-yl)oxy)-4-(4-((4′-chloro-5,5-dimethyl-3,4,5,6-tetrahydro-[1,1′-biphenyl]-2-yl)methyl)piperazin-1-yl)benzoyl)sulfamoyl)-2-nitrophenyl)amino)propyl)-1-oxido-1λ^6-thiomorpholin-1-ylidene) carbamate]: the pIC50 with RS4; 11 cells (Homo sapiens, RS4-11, 72 h) was 7.17; with DOHH2 cells (Homo sapiens, DOHH-2, 120 h) it was 6.92.

Turning to `CC1(C)CCC(CN2CCN(c3ccc(C(=O)NS(=O)(=O)c4ccc(NCC5CCC(N=S(C)(C)=O)CC5)c([N+](=O)[O-])c4)c(Oc4cnc5[nH]ccc5c4)c3)CC2)=C(c2ccc(Cl)cc2)C1` (single isomer, unassigned) [Example 50B, 2-((1H-pyrrolo[2,3-b]pyridin-5-yl)oxy)-4-(4-((4′-chloro-5,5-dimethyl-3,4,5,6-tetrahydro-[1,1′-biphenyl]-2-yl)methyl)piperazin-1-yl)-N-((4-(((4-((dimethyl(oxo)-λ^6-sulfanylidene)amino)cyclohexyl)methyl)amino)-3-nitrophenyl)sulfonyl) benzamide], the pIC50 was 8.40 in the assay with RS4; 11 cells and 7.87 with DOHH2 cells.

`CCN=S1(=O)CCC(CNc2ccc(S(=O)(=O)NC(=O)c3ccc(N4CCN(CC5=C(c6ccc(Cl)cc6)CC(C)(C)CC5)CC4)cc3Oc3cnc4[nH]ccc4c3)cc2[N+](=O)[O-])CC1` (centres unmarked) [Example 30, 2-((1H-pyrrolo[2,3-b]pyridin-5-yl)oxy)-4-(4-((4′-chloro-5,5-dimethyl-3,4,5,6-tetrahydro-[1,1′-biphenyl]-2-yl)methyl)piperazin-1-yl)-N-((4-(((1-(ethylimino)-1-oxidohexahydro-1λ^6-thiopyran-4-yl)methyl)amino)-3-nitrophenyl)sulfonyl) benzamide]: the pIC50 with RS4; 11 cells (Homo sapiens, RS4-11, 72 h) is 7.37; in the assay with DOHH2 cells (Homo sapiens, DOHH-2, 120 h) it was 6.88.

As for `CCOC(=O)N=S1(=O)CCN(CC[C@H](C)Nc2ccc(S(=O)(=O)NC(=O)c3ccc(N4CCN(CC5=C(c6ccc(Cl)cc6)CC(C)(C)CC5)CC4)cc3Oc3cnc4[nH]ccc4c3)cc2[N+](=O)[O-])CC1` [Example 85, ethyl (S)-(4-(3-((4-(N-(2-((1H-pyrrolo[2,3-b]pyridin-5-yl)oxy)-4-(4-((4′-chloro-5,5-dimethyl-3,4,5,6-tetrahydro-[1,1′-biphenyl]-2-yl)methyl)piperazin-1-yl)benzoyl)sulfamoyl)-2-nitrophenyl)amino)butyl)-1-oxido-1λ^6-thiomorpholin-1-ylidene) carbamate], the pIC50 was 7.44 in the assay on RS4; 11 cells (Homo sapiens, RS4-11, 72 h) and 7.52 in the assay with DOHH2 cells (Homo sapiens, DOHH-2, 120 h).
